From patent publication US20240166626A1, “Compounds and Methods for Preventing, Treating, or Ameliorating Airway Disease” (THOMAS JEFFERSON UNIVERSITY, priority 2021, published 2024)

Molecular target: β1AR (Homo sapiens, UniProt P08588)
Experiment: BRET analysis of β-arrestin2 interaction with β1AR in HEK 293 cells
Assay type: cell-based
Conditions: 10 μM DFPQ, FIG. 2B
Description: FIGS. 2A-2C: […] Cells were read every 2 min post agonist addition. […]® ADRB2 cells (DiscoveRx) were maintained with the AssayCompleteTM Cell Culture kit (DiscoveRx catalog #92-[…]). […] HEK 293 cells stably overexpressing β2AR included 250 μg/ml G418. Cells were incubated at 37° C. in a humidified incubator with 5% CO2. […] Cells were read every three minutes for 18 minutes on a PolarStar Optima plate reader (BMG) to establish peak signal. […] Plates were incubated in the dark at room temperature for one hour. Luminescence was determined at room temperature (23-25° C.) on a PolarStar Optima plate reader (BMG). […] Screening data analysis and IC50 determination. […] Relative assay bias was calculated from the ratio of normalized cAMP and arrestin recruitment responses. […] BRET was measured using a Tecan Infinite F500 microplate reader. […] Bound [35 S]GTPγS was collected by rapid filtration on GF/B filters, washed 4 times with 4 ml of cold GTPγS wash buffer and analyzed by liquid scintillation counting. […] Immunoprecipitated proteins were separated by SDS-PAGE and analyzed by western blot using a β2AR C-terminal tail or phospho-specific antibody. […] Band intensity was measured by densitometry using ImageJ. […] Absorbance was then measured on a plate reader at 405 nm. […] Lungs were monitored for appropriate inflation. […] Images were analyzed post hoc using the ImageJ software. […] Cell-free area was quantitated using ImageJ. […]

Sequence of β1AR (P08588 whole entry): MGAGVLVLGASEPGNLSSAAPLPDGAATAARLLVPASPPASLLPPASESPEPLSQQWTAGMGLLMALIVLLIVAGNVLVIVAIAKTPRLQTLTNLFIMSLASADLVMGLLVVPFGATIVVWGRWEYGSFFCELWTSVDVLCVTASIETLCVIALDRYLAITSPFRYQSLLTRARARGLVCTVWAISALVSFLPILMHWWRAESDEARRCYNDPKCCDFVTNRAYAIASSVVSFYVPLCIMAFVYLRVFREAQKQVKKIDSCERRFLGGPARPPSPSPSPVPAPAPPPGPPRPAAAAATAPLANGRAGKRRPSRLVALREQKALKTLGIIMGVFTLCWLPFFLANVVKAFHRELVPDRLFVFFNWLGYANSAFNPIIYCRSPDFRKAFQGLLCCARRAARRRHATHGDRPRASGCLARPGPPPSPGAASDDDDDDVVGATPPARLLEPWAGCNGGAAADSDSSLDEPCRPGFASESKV

- β-arrestin2 interaction with the β1AR: not significantly inhibited
SMILES: Fc1ccc(Nc2nc(NC3CCCCC3)c3ccccc3n2)cc1F [DFPQ, N^4-cyclohexyl-N^2-(3,4-difluorophenyl)quinazoline-2,4-diamine]
